Columns and labels:
[1] = AUC(0 to t) in human at 10 mg/kg, po administered as single dose; type: ADME, organism-based; parameters: dose 10 mg/kg, route po; settings: in vivo
Rattus norvegicus [2] = assay: Acute effect on parathyroid hormone in overnight fasted adenine diet-induced chronic kidney disease Wistar rat model assessed as reduction in plasma PTH level at 10 mg/kg, po measured after 2 hrs of post treatment by sandwich ELISA analysis; type: functional; parameters: scale not given: the % may be the effect or the level left
[3] = AUC in Beagle dog at 5 mg/kg, po measured upto 24 hrs by LC/MS-MS analysis; type: ADME, organism-based, Canis lupus familiaris; parameters: dose 5 mg/kg, time < 24 hrs, route po; settings: in vivo
[4] = molecular target: T1, Adenosine receptor A1 (Homo sapiens) (UniProt P30542); assay: Inhibition of human recombinant A1 receptor at 10 uM relative to control
T1 sequence (whole entry): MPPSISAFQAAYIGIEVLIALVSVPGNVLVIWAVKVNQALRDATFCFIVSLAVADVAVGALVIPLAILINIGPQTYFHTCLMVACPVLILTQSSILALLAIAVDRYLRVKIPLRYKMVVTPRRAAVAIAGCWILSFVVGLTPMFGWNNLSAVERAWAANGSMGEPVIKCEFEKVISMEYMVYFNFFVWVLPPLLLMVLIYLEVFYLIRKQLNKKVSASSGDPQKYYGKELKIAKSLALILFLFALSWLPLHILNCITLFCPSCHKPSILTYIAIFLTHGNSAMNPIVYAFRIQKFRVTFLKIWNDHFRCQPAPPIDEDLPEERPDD

[5] = Kinetic solubility of compound in water upto 500 uM measured after 16 hrs under shaking condition by UV-visible method; type: physicochemical; settings: read-out: Kinetic_solubility
[6] = Protein binding in mouse plasma incubated for 16 hrs under shaking condition by rapid equilibrium dialysis based LC-MS/MS method; type: ADME, cell-free; settings: read-out: PPB
CYP2C19 = CYP2C19 (Homo sapiens, UniProt P33261); assay: Inhibition of CYP2C19 in human liver microsomes at 10 uM preincubated for 5 mins followed by NADPH addition by LC-MS/MS analysis relative to control; type: ADME, Microsome
[7] = Chemical stability of the compound in SIF measured after 0.5 to 4 hrs; type: physicochemical; settings: simulated gi fluid; time 0.5-4 hrs
[8] = Toxicity in monkey assessed as NOAEL; parameters: species or system Macaca mulatta; settings: rhesus monkey, in vivo
Rattus norvegicus [9] = assay: Acute effect on parathyroid hormone in overnight fasted adenine diet-induced chronic kidney disease Wistar rat model plasma assessed as reduction in plasma PTH level at 1 mg/kg, po measured after 4 hrs of post treatment by sandwich ELISA analysis; type: functional; parameters: scale not given: the % may be the effect or the level left
[10] = Cmax in human at 25 mg/kg, po administered as multiple dose on day 8; type: ADME, organism-based; parameters: dose 25 mg/kg, route po; settings: in vivo
[11] = Chemical stability of the compound in 0.1N NaOH measured after 0.5 to 4 hrs; type: physicochemical; settings: time 0.5-4 hrs
CYP2C9 = CYP2C9 (Homo sapiens, UniProt P11712); assay: Inhibition of CYP2C9 in human liver microsomes at 10 uM preincubated for 5 mins followed by NADPH addition by LC-MS/MS analysis relative to control; type: ADME, Microsome
Cytochrome P450 2A6 = molecular target: T2, Cytochrome P450 2A6 (Homo sapiens, UniProt P11509); assay: Inhibition of CYP2A6 in human liver microsomes preincubated for 5 mins followed by NADPH addition by LC-MS/MS analysis; type: ADME, Microsome
T2 sequence (P11509 whole entry): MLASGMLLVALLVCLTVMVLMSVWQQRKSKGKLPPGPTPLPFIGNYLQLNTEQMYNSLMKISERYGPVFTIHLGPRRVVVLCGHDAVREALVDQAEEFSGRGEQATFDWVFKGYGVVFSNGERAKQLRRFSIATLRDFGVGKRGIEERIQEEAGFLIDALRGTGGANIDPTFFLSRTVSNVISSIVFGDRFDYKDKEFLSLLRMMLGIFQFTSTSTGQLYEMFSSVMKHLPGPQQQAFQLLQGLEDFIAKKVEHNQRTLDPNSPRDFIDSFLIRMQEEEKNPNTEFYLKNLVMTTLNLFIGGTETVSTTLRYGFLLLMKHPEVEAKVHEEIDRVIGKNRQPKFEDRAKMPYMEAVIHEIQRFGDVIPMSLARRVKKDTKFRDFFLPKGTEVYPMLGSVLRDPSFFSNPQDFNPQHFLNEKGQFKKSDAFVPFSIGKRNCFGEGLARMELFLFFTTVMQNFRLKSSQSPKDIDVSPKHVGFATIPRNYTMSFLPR

[12] = AUClast in Sprague-Dawley rat at 1 mg/kg, iv measured upto 24 hrs by LC-MS/MS analysis; type: ADME, organism-based; parameters: dose 1 mg/kg, time < 24 hrs, route iv; settings: in vivo
[13] = Volume of distribution at steady state in Sprague-Dawley rat at 1 mg/kg, iv measured upto 24 hrs by LC/MS-MS analysis; type: ADME, organism-based; settings: in vivo, read-out: Vdss
[14] = Cmax in cynomolgus monkey at 5 mg/kg, po measured upto 24 hrs by LC/MS-MS analysis; type: ADME, organism-based, Macaca fascicularis; parameters: time < 24 hrs, dose 5 mg/kg, route po; settings: in vivo
[15] = Effect on parathyroid hormone in overnight fasted Sprague-Dawley rat assessed as reduction in plasma PTH level at 10 mg/kg, po measured after 2 hrs of post treatment by sandwich ELISA analysis; type: functional; parameters: scale not given: the % may be the effect or the level left
[16] = Drug excretion in rat assessed as drug recovery in urine at 1 mg/kg, iv; type: ADME, organism-based; settings: read-out: Drug recovery
[17] = Plasma protein binding in human; type: ADME; settings: read-out: PPB
[18] = Oral bioavailability in BALB/c mouse at 10 mg/kg measured upto 24 hrs by LC/MS-MS analysis; type: ADME, organism-based; settings: in vivo
CYP2E1 = CYP2E1 (Homo sapiens, UniProt P05181); assay: Inhibition of CYP2E1 in human liver microsomes at 10 uM preincubated for 5 mins followed by NADPH addition by LC-MS/MS analysis relative to control; type: ADME, Microsome
[19] = Tmax in Sprague-Dawley rat at 10 mg/kg, po measured upto 24 hrs by LC/MS-MS analysis; type: ADME, organism-based; settings: in vivo
[20] = Half life in cynomolgus monkey at 1 mg/kg, iv measured upto 24 hrs by LC/MS-MS analysis; type: ADME, organism-based, Macaca fascicularis; settings: in vivo
[21] = Tmax in Sprague-Dawley rat at 10 mg/kg, po administered as solution measured upto 24 hrs by LC-MS/MS analysis; type: ADME, organism-based; settings: in vivo
[22] = AUC(0 to t) in rat at 25 mg/kg per day, po via gavage administered for 13 weeks; type: ADME, organism-based; parameters: dose 25 mg/kg, time 13 weeks, route po; settings: in vivo
[23] = AUC(0 to 24 hrs) in Sprague-Dawley rat at 10 mg/kg; type: ADME, organism-based; parameters: dose 10 mg/kg; settings: in vivo
[24] = Metabolic stability in rat liver cytosol measured upto 60 mins by LC-MS/MS method; type: ADME, subcellular; settings: read-out: Stability
Rattus norvegicus [25] = assay: Chronic effect on parathyroid hormone in overnight fasted adenine diet-induced chronic kidney disease Wistar rat model plasma assessed as reduction in plasma PTH level at 3 mg/kg, po qd measured after 27 days of post treatment by sandwich ELISA analysis; type: functional; parameters: scale not given: the % may be the effect or the level left; settings: time 27 day
[26] = Volume of distribution at steady state in Beagle dog at 1 mg/kg, iv measured upto 24 hrs by LC/MS-MS analysis; type: ADME, organism-based, Canis lupus familiaris; settings: in vivo, read-out: Vdss
[27] = Drug excretion in rat assessed as drug recovery in urine at 10 mg/kg, po; type: ADME, organism-based; settings: read-out: Drug recovery
Rattus norvegicus [28] = assay: Acute effect on parathyroid hormone in overnight fasted adenine diet-induced chronic kidney disease Wistar rat model assessed as reduction in plasma PTH level at 3 mg/kg, po measured after 2 hrs of post treatment by sandwich ELISA analysis; type: functional; parameters: scale not given: the % may be the effect or the level left
[29] = Stability in human liver microsomes assessed as parent compound remaining measured after 60 mins in presence of NADPH by LC-MS/MS analysis; type: ADME, Microsome; settings: read-out: Stability

Sequence of CYP2C9 (P11712 whole entry): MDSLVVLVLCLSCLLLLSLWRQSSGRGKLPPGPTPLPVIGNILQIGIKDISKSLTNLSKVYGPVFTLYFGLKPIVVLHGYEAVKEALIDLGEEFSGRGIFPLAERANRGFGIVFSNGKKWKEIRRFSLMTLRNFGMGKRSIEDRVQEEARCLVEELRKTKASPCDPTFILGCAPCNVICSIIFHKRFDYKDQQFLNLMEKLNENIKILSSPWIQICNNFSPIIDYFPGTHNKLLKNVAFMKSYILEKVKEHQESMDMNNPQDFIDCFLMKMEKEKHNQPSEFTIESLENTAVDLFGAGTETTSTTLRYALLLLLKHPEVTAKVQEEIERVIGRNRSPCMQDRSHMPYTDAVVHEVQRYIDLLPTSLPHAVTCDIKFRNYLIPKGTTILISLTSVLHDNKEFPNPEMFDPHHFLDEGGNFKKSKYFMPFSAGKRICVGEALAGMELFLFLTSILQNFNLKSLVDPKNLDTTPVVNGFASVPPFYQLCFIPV
Sequence of CYP2E1 (P05181 whole entry): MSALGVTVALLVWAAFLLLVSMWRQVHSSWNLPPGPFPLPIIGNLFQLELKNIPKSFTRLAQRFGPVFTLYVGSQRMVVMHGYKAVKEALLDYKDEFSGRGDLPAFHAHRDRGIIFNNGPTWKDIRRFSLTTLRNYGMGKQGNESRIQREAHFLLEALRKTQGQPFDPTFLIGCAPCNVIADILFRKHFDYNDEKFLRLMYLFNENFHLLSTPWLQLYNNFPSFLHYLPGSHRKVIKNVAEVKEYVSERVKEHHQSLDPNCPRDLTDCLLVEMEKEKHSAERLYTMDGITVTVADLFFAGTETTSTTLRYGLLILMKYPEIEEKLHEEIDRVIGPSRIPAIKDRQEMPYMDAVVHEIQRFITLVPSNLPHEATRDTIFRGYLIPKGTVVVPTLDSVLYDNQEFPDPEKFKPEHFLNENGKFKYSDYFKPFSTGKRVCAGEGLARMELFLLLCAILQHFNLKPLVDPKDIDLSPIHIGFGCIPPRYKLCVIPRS
Sequence of CYP2C19 (P33261 whole entry): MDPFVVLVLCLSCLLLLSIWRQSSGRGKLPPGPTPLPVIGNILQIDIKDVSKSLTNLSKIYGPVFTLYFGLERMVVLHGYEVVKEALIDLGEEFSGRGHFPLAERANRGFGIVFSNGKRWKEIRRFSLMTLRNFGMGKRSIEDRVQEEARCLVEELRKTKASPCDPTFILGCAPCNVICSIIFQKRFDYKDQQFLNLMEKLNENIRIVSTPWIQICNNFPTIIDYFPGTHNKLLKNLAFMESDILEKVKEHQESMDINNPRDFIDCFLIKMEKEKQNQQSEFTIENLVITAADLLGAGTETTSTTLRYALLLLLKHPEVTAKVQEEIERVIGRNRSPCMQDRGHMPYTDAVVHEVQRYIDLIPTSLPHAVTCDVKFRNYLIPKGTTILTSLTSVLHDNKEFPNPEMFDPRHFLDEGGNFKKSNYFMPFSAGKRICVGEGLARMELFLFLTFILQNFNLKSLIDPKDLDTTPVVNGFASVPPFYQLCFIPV

With `Cc1ccc([C@@H]2C[C@H](CN[C@H](C)c3cccc4ccccc34)Oc3ccccc32)cc1C(=O)O.Cl` as the molecule, how does the AUC(0-t) [1] read?
The AUC(0-t) was 1840 ng·h/mL.

What about the Activity (Rattus norvegicus [2]) of the same molecule?
Its Activity is 89%.

What about the AUC at 24 h [3] of the same molecule?
The AUC at 24 h was 63 µM·h.

What about the inhibition [4] of the same molecule?
Its inhibition is over 50%.

What about the solubility kinetic at 16 h, 500 µM [5] of the same molecule?
Its solubility kinetic at 16 h, 500 µM is over 300 µM.

What about the fraction unbound at 16 h [6] of the same molecule?
Its fraction unbound at 16 h is under 0.01.

And the inhibition at 10 µM (CYP2C19)?
Its inhibition at 10 µM is 7%.

What about the Stability [7] of the same molecule?
Its Stability is “Stable”.

What about the NOAEL [8] of the same molecule?
Its NOAEL is 50 mg/kg/day.

And the Activity (Rattus norvegicus [9])?
The Activity was 84%.

And the Cmax [10]?
The Cmax was 463 ng/mL.

And the Stability [11]?
The Stability was “Stable”.

And the inhibition at 10 µM (CYP2C9)?
The inhibition at 10 µM was 0%.

And the IC50 (Cytochrome P450 2A6)?
Its IC50 is 41 µM.

And the AUC(0-t) at 24 h [12]?
The AUC(0-t) at 24 h was 7 µM·h.

And the Vd [13]?
The Vd was 1 L/kg.

And the Cmax [14]?
The Cmax was 400 nM.

What about the Activity [15] of the same molecule?
Its Activity is 99%.

And the dose excreted [16]?
The dose excreted was under 1%.

What about the fraction unbound [17] of the same molecule?
Its fraction unbound is under 0.01.

What about the bioavailability [18] of the same molecule?
Its bioavailability is 100%.

What about the inhibition at 10 µM (CYP2E1) of the same molecule?
Its inhibition at 10 µM is 0%.

And the Tmax [19]?
Its Tmax is 36 min.

And the half-life [20]?
The half-life was 300 min.

And the Tmax [21]?
Its Tmax is 36 min.

What about the AUC(0-t) at 2184 h [22] of the same molecule?
Its AUC(0-t) at 2184 h is 98900 ng·h/mL.

What about the AUC(0-t) [23] of the same molecule?
The AUC(0-t) was 23 µM·h.

What about the remaining at 1 h [24] of the same molecule?
Its remaining at 1 h is over 80%.

What about the Activity (Rattus norvegicus [25]) of the same molecule?
The Activity was 83%.

And the Vd [26]?
Its Vd is 0.7 L/kg.

And the dose excreted [27]?
Its dose excreted is under 1%.

And the Activity (Rattus norvegicus [28])?
The Activity was 96%.

And the remaining at 1 h [29]?
The remaining at 1 h was about 30%.

Reference: ChEMBL document CHEMBL5346964, “Discovery of LNP1892: A Precision Calcimimetic for the Treatment of Secondary Hyperparathyroidism” (J Med Chem, 2023)
